Patent US8129419B2, “Microbicidal composition” (Rohm and Haas Company, priority 2007, dated 2012)
Where “and” joins values, the source holds several entries; their conditions need not be identical. Equal values may be shown once.

Assays:
Type in all cases: cell-based
S. aureus ATCC#6538 = assay: Synergy test: microtiter plate high resolution MIC assay, M9GY medium, 30° C.; details: for MIC of the microbicide acting alone (Ca or Cb; QA/QB): S. aureus, single component; for Cb: ppm AI of MBIT alone (MIC end-point, QB): Table 6
Source text: (§1) One measure of synergism is the industrially accepted method described by Kull, F. C.; Eisman, P. C.; Sylwestrowicz, H. D. and Mayer, R. L., in Applied Microbiology 9:538-541 (1961), using the ratio determined by the formula: Qa/QA+Qb/QB=Synergy Index(“SI”) wherein: • QA=concentration of compound A (first component) in ppm, acting alone, which produced an end point (MIC of Compound A). • Qa=concentration of compound A in ppm, in the mixture, which produced an end point. • QB=concentration of compound B (second component) in ppm, acting alone, which produced an end point (MIC of Compound B). • Qb=concentration of compound B in ppm, in the mixture, which produced an end point.
(§2) When the sum of Qa/QA and Qb/QB is greater than one, antagonism is indicated. […] The lower the SI, the greater the synergy shown by that particular mixture. The minimum inhibitory concentration (MIC) of a microbicide is the lowest concentration tested under a specific set of conditions that prevents the growth of added microorganisms.
(§3) Synergy tests were conducted using standard microtiter plate assays with media designed for optimal growth of the test microorganism. Minimal salt medium supplemented with 0.2% glucose and 0.1% yeast extract (M9GY medium) was used for testing bacteria; Potato Dextrose Broth (PDB medium) was used for testing yeast and mold. In this method, a wide range of combinations of microbicides was tested by conducting high resolution MIC assays in the presence of various concentrations of MBIT. High resolution MICs were determined by adding varying amounts of microbicide to one column of a microtitre plate and doing subsequent […] dilutions using an automated liquid handling system to obtain a series of endpoints ranging from 2 ppm to 10,000 ppm active ingredient.
(§4) The synergy of the combinations of the present invention was determined against several microorganisms, as described in the Tables below. The bacteria were used at a concentration of about 5×10^6 bacteria per mL and the yeast and mold at 5×10^5 fungi per mL. These microorganisms are representative of natural contaminants in many consumer and industrial applications. […] (yeast and mold) or 30° C. (bacteria).
(§5) In each test, Second Component (B) was MBIT and the First Component (A) was the other commercial microbicide.

Ps. aeruginosa ATCC#9027 = assay: as above; details: for MIC of the microbicide acting alone (Ca or Cb; QA/QB): Ps. aeruginosa, single component
Source text: as §1, §2, §3, §4, §5

C. albicans ATCC # 10231 = assay: Synergy test: microtiter plate high resolution MIC assay, PDB medium, 25° C.; details: for MIC of the microbicide acting alone (Ca or Cb; QA/QB): C. albicans, single component
Source text: as §1, §2, §3, §4, §5

A. niger ATCC # 16404 = assay: as above; details: for MIC of the microbicide acting alone (Ca or Cb; QA/QB): A. niger, single component
Source text: as §1, §2, §3, §4, §5

[1] = contact time 24 hrs, MBIT alone (QB) or in mixture with ACQ C2 (Qb)
[2] = contact time 24 hrs, MBIT alone (QB) or in mixture with ACQ type D (Qb)
[3] = contact time 48 hrs, MBIT alone (QB) or in mixture with ACQ C2 (Qb)
[4] = contact time 48 hrs, MBIT alone (QB) or in mixture with ACQ type D (Qb)

## CCCCCCCCCCCC(=O)N[C@@H](CCCN=C(N)N)C(=O)OCC.Cl [CYTO GUARD LA, ethyl lauroyl arginate hydrochloride]
S. aureus ATCC#6538; contact time 24 hrs
  MIC of the microbicide acting alone (Ca or Cb; QA/QB): 2.125 ppm AI
S. aureus ATCC#6538; contact time 48 hrs
  MIC of the microbicide acting alone (Ca or Cb; QA/QB): 2.625 ppm AI
Ps. aeruginosa ATCC#9027; contact time 48 hrs
  MIC of the microbicide acting alone (Ca or Cb; QA/QB): 42.5 ppm AI
C. albicans ATCC # 10231; contact time 48 hrs
  MIC of the microbicide acting alone (Ca or Cb; QA/QB): 87.5 ppm AI
C. albicans ATCC # 10231; contact time 72 hrs
  MIC of the microbicide acting alone (Ca or Cb; QA/QB): 87.5 ppm AI
A. niger ATCC # 16404; contact time 3 days
  MIC of the microbicide acting alone (Ca or Cb; QA/QB): 110 ppm AI
A. niger ATCC # 16404; contact time 7 days
  MIC of the microbicide acting alone (Ca or Cb; QA/QB): 110 ppm AI

## Cn1sc2ccccc2c1=O [MBIT, N-methyl-1,2-benzisothiazolin-3-one]
S. aureus ATCC#6538; S. aureus ATCC#6538, contact time 24 hrs
  Cb: ppm AI of MBIT alone (MIC end-point, QB): 15 ppm
S. aureus ATCC#6538; S. aureus ATCC#6538, contact time 48 hrs
  Cb: ppm AI of MBIT alone (MIC end-point, QB): 15 ppm
S. aureus ATCC#6538; contact time 24 hrs
  MIC of the microbicide acting alone (Ca or Cb; QA/QB): 15 ppm AI
S. aureus ATCC#6538; contact time 48 hrs
  MIC of the microbicide acting alone (Ca or Cb; QA/QB): 15 ppm AI
S. aureus ATCC#6538; second block of Table 4, contact time not given
  MIC of the microbicide acting alone (Ca or Cb; QA/QB): 15 ppm AI
S. aureus ATCC#6538; [1]
  Cb: ppm AI of MBIT at MIC end point: 15 ppm
S. aureus ATCC#6538; [2]
  Cb: ppm AI of MBIT at MIC end point: 15 ppm
S. aureus ATCC#6538; [3]
  Cb: ppm AI of MBIT at MIC end point: 15 ppm
S. aureus ATCC#6538; [4]
  Cb: ppm AI of MBIT at MIC end point: 15 ppm
Ps. aeruginosa ATCC#9027; Ps. aeruginosa ATCC#9027, contact time 24 hrs, alone, Table 6
  Cb: ppm AI of MBIT alone (MIC end-point, QB): 125 ppm
Ps. aeruginosa ATCC#9027; contact time 24 hrs
  MIC of the microbicide acting alone (Ca or Cb; QA/QB): 125 ppm AI
Ps. aeruginosa ATCC#9027; contact time 48 hrs
  MIC of the microbicide acting alone (Ca or Cb; QA/QB): 125 ppm AI
Ps. aeruginosa ATCC#9027; [1]
  Cb: ppm AI of MBIT at MIC end point: 75 ppm
Ps. aeruginosa ATCC#9027; [2]
  Cb: ppm AI of MBIT at MIC end point: 75 ppm
Ps. aeruginosa ATCC#9027; [3]
  Cb: ppm AI of MBIT at MIC end point: 125 ppm
Ps. aeruginosa ATCC#9027; [4]
  Cb: ppm AI of MBIT at MIC end point: 125 ppm
C. albicans ATCC # 10231; C. albicans ATCC # 10231, contact time 48 hrs, Table 6
  Cb: ppm AI of MBIT alone (MIC end-point, QB): 30 ppm
C. albicans ATCC # 10231; C. albicans ATCC # 10231, contact time 48 hrs, Table 7
  Cb: ppm AI of MBIT alone (MIC end-point, QB): 30 ppm
C. albicans ATCC # 10231; C. albicans ATCC # 10231, contact time 48 hrs, Table 8
  Cb: ppm AI of MBIT alone (MIC end-point, QB): 30 ppm
C. albicans ATCC # 10231; C. albicans ATCC # 10231, contact time 72 hrs, Table 6
  Cb: ppm AI of MBIT alone (MIC end-point, QB): 30 ppm
C. albicans ATCC # 10231; C. albicans ATCC # 10231, contact time 72 hrs, Table 7
  Cb: ppm AI of MBIT alone (MIC end-point, QB): 30 ppm
C. albicans ATCC # 10231; C. albicans ATCC # 10231, contact time 72 hrs, Table 8
  Cb: ppm AI of MBIT alone (MIC end-point, QB): 30 ppm
C. albicans ATCC # 10231; contact time 48 hrs
  MIC of the microbicide acting alone (Ca or Cb; QA/QB): 30 ppm AI
C. albicans ATCC # 10231; contact time 72 hrs
  MIC of the microbicide acting alone (Ca or Cb; QA/QB): 30 ppm AI and 60 ppm AI
C. albicans ATCC # 10231; [3]
  Cb: ppm AI of MBIT at MIC end point: 60 ppm
C. albicans ATCC # 10231; [4]
  Cb: ppm AI of MBIT at MIC end point: 30 ppm
C. albicans ATCC # 10231; contact time 72 hrs, MBIT alone (QB) or in mixture with ACQ C2 (Qb)
  Cb: ppm AI of MBIT at MIC end point: 60 ppm
C. albicans ATCC # 10231; contact time 72 hrs, MBIT alone (QB) or in mixture with ACQ type D (Qb)
  Cb: ppm AI of MBIT at MIC end point: 60 ppm
A. niger ATCC # 16404; A. niger ATCC # 16404, contact time 3 days, Table 6
  Cb: ppm AI of MBIT alone (MIC end-point, QB): 37.5 ppm
A. niger ATCC # 16404; A. niger ATCC # 16404, contact time 3 days, Table 7
  Cb: ppm AI of MBIT alone (MIC end-point, QB): 37.5 ppm
A. niger ATCC # 16404; A. niger ATCC # 16404, contact time 3 days, Table 8
  Cb: ppm AI of MBIT alone (MIC end-point, QB): 37.5 ppm
A. niger ATCC # 16404; A. niger ATCC # 16404, contact time 7 days, Table 6
  Cb: ppm AI of MBIT alone (MIC end-point, QB): 37.5 ppm
A. niger ATCC # 16404; A. niger ATCC # 16404, contact time 7 days, Table 7
  Cb: ppm AI of MBIT alone (MIC end-point, QB): 75 ppm
A. niger ATCC # 16404; A. niger ATCC # 16404, contact time 7 days, Table 8
  Cb: ppm AI of MBIT alone (MIC end-point, QB): 75 ppm
A. niger ATCC # 16404; contact time 3 days
  MIC of the microbicide acting alone (Ca or Cb; QA/QB): 37.5 ppm AI
A. niger ATCC # 16404; contact time 7 days
  MIC of the microbicide acting alone (Ca or Cb; QA/QB): 37.5 ppm AI and 75 ppm AI
A. niger ATCC # 16404; contact time 3 days, MBIT alone (QB) or in mixture with ACQ C2 (Qb)
  Cb: ppm AI of MBIT at MIC end point: 37.5 ppm
A. niger ATCC # 16404; contact time 3 days, MBIT alone (QB) or in mixture with ACQ type D (Qb)
  Cb: ppm AI of MBIT at MIC end point: 37.5 ppm
A. niger ATCC # 16404; contact time 7 days, MBIT alone (QB) or in mixture with ACQ C2 (Qb)
  Cb: ppm AI of MBIT at MIC end point: 37.5 ppm
A. niger ATCC # 16404; contact time 7 days, MBIT alone (QB) or in mixture with ACQ type D (Qb)
  Cb: ppm AI of MBIT at MIC end point: 75 ppm

## cocamidopropyl-N-2-hydroxyethylcarbamoyl methyl dimethyl ammonium chloride [MONTALINE C40]
S. aureus ATCC#6538; contact time 24 hrs
  MIC of the microbicide acting alone (Ca or Cb; QA/QB): 5 ppm AI
S. aureus ATCC#6538; contact time 48 hrs
  MIC of the microbicide acting alone (Ca or Cb; QA/QB): 5 ppm AI
Ps. aeruginosa ATCC#9027; contact time 24 hrs
  MIC of the microbicide acting alone (Ca or Cb; QA/QB): 300 ppm AI
Ps. aeruginosa ATCC#9027; contact time 48 hrs
  MIC of the microbicide acting alone (Ca or Cb; QA/QB): 300 ppm AI
C. albicans ATCC # 10231; contact time 48 hrs
  MIC of the microbicide acting alone (Ca or Cb; QA/QB): 525 ppm AI
C. albicans ATCC # 10231; contact time 72 hrs
  MIC of the microbicide acting alone (Ca or Cb; QA/QB): 1100 ppm AI
A. niger ATCC # 16404; contact time 3 days
  MIC of the microbicide acting alone (Ca or Cb; QA/QB): 650 ppm AI
A. niger ATCC # 16404; contact time 7 days
  MIC of the microbicide acting alone (Ca or Cb; QA/QB): 650 ppm AI
